Patent publication US10357473B2, “Method for treating a prolifitive disorder with a cis-diamine platinum complex” (KING FAHD UNIVERSITY OF PETROLEUM AND MINERALS, priority 2017, dated 2019)

Assays:
Type in all cases: cell-based
[1] = tested on: A549 (human lung carcinoma) cell line; assay: In vitro cytotoxic activity (MTT assay) against A549 cells; settings: for IC50: MTT assay, cultures incubated 24 h with compound, ± standard deviation, three independent experiments; for in vitro cytotoxicity against A549 compared in words with cisplatin / carboplatin: A549 cells, comparison of IC50 values
Procedure: (§1) The cis-[Pt(NH3)2(thione)2].2NO3 complexes were evaluated for their in vitro cytotoxic activity against A549 (human lung cancer), MCF-7 (human breast cancer) and HTC15 (human colon cancer) cell lines. The cells were seeded at 4×10^3 cells/well in 100 μL DMEM containing 10% FBS in 96-wells tissue culture plate and incubated for 72 h at 37° C., 5% CO2 in the air and 90% relative humidity in the CO2 incubator. […] The medium of wells was discarded and 100 μL DMEM containing MTT (3-(4,5-Dimethylthiazol-2-yl)-2,5-diphenyltetrazolium Bromide) (5 mg/mL) was added to the wells and incubated in a CO2 incubator at 37° C. in dark for 4 h. After incubation, purple colored formazan (artificial chromogenic dye, a product of the reduction of water insoluble tetrazolium salts e.g., MMT by dehydrogenases and reductases) in the cells is produced and appeared as dark crystals in the bottom of the wells. The resultant crystals were solubilized by adding 100 μL of DMSO in each well. The solution was thoroughly mixed to dissolve the formazan crystals, producing a purple solution. The absorbance of the 96-wells plate was taken at 570 nm with Labsystems Multiskan EX-Enzyme-linked immunosorbent assay (EX-ELISA) reader against a reagent blank. The IC50 values were calculated from three independent experiments by generating an equation of logarithmic trendline of percentage cell viability against concentration compounds in Microsoft excel.
(§2) The MTT assay was performed in three independent experiments, each in triplicate. The cancer cell lines used are A549 (human lung cancer), MCF-7 (human breast cancer) and HTC15 (human colon cancer) cell lines.

[2] = tested on: MCF7 (human breast carcinoma) cell line; assay: In vitro cytotoxic activity (MTT assay) against MCF7 cells; settings: for antiproliferative potency against MCF7 in words, compared with cisplatin / carboplatin: MCF7 cells, comparison of IC50 values; for IC50: MTT assay, cultures incubated 24 h with compound, ± standard deviation, three independent experiments
Procedure: as §1
(§3) The IC50 values were obtained from curves between the complexes concentration and viability percentage of the cells, and are listed, in Table 3.
as §2, with “The experimental results are presented as the micro-mole concentration of 50%/0 cell growth inhibition (IC50) of each drug. The MTT” for “The MTT”

[3] = tested on: HCT15 (human colon adenocarcinoma) cell line; assay: In vitro cytotoxic activity (MTT assay) against HCT15 cells; settings: for IC50: MTT assay, cultures incubated 24 h with compound, ± standard deviation, three independent experiments; for cytotoxicity against HCT15 compared in words with cisplatin / carboplatin: HCT15 cells, comparison of IC50 values
Procedure: as §1, §3
as §2, with “The experimental results are presented as the micro-mole concentration of 50%/0 cell growth inhibition (IC50) of each drug. The MTT” for “The MTT”

Compound	IC50 [1]	antiproliferative potency against MCF7 in words, compared with cisplatin / carboplatin [2]	IC50 [2]	IC50 [3]	in vitro cytotoxicity against A549 compared in words with cisplatin / carboplatin [1]	cytotoxicity against HCT15 compared in words with cisplatin / carboplatin [3]
N.N.O=C([O-])C1(C(=O)[O-])CCC1.[Pt+2] [Carboplatin, reference compound]	70 ± 2 µM	poor antiproliferative potency	63 ± 2 µM	53 ± 2 µM	–	–
N.N.[Cl][Pt][Cl] [Cisplatin, cis-diaminedichloridoplatinum(II), reference compound]	42 ± 2 µM	–	23 ± 3 µM	32 ± 2 µM	–	–
O=[N+]([O-])[O-].O=[N+]([O-])[O-].[NH3+][Pt-2]([NH3+])([S+]=C1NCCN1)[S+]=C1NCCN1 [Compound 1, cis-[Pt(NH3)2(Imt)2].2NO3]	53 µM	–	101 ± 2 µM	82 ± 1 µM	comparable to cisplatin	–
CN1CCNC1=[S+][Pt-2]([NH3+])([NH3+])[S+]=C1NCCN1C.O=[N+]([O-])[O-].O=[N+]([O-])[O-] [Compound 2, cis-[Pt(NH3)2(MeImt)2].2NO3]	85 ± 1 µM	–	82 ± 1 µM	75 ± 2 µM	–	–
CN1CCN(C)C1=[S+][Pt-2]([NH3+])([NH3+])[S+]=C1N(C)CCN1C.O=[N+]([O-])[O-].O=[N+]([O-])[O-] [Compound 3, cis-[Pt(NH3)2(Me2Imt)2].2NO3]	68 ± 1 µM	greater cytotoxic effect than carboplatin	58 µM	54 ± 1 µM	–	nearly same value as carboplatin
CCN1CCN(CC)C1=[S+][Pt-2]([NH3+])([NH3+])[S+]=C1N(CC)CCN1CC.O=[N+]([O-])[O-].O=[N+]([O-])[O-] [Compound 4, cis-[Pt(NH3)2(Et2Imt)2].2NO3]	108 ± 2 µM	–	97 ± 3 µM	97 ± 3 µM	–	–
CCCN1CCNC1=[S+][Pt-2]([NH3+])([NH3+])[S+]=C1NCCN1CCC.O=[N+]([O-])[O-].O=[N+]([O-])[O-] [Compound 5, cis-[Pt(NH3)2(PrImt)2].2NO3]	72 ± 2 µM	–	74 ± 2 µM	51 ± 2 µM	nearly same as that of carboplatin	lower IC50 values
CC(C)N1CCNC1=[S+][Pt-2]([NH3+])([NH3+])[S+]=C1NCCN1C(C)C.O=[N+]([O-])[O-].O=[N+]([O-])[O-] [Compound 6, cis-[Pt(NH3)2(iPrImt)2].2NO3]	55 µM	–	81 ± 3 µM	48 ± 1 µM	comparable to cisplatin	lower IC50 values
CC(C)N1CCN(C(C)C)C1=[S+][Pt-2]([NH3+])([NH3+])[S+]=C1N(C(C)C)CCN1C(C)C.O=[N+]([O-])[O-].O=[N+]([O-])[O-] [Compound 7, cis-[Pt(NH3)2(iPr2Imt)2].2NO3]	50 µM	–	78 ± 2 µM	52 ± 1 µM	comparable to cisplatin	lower IC50 values
O=[N+]([O-])[O-].O=[N+]([O-])[O-].[NH3+][Pt-2]([NH3+])([S+]=C1NCCCN1)[S+]=C1NCCCN1 [Compound 8, cis-[Pt(NH3)2(Diaz)2].2NO3]	75 ± 2 µM	–	90 ± 2 µM	76 ± 1 µM	nearly same as that of carboplatin	–
CCN1CCCNC1=[S+][Pt-2]([NH3+])([NH3+])[S+]=C1NCCCN1CC.O=[N+]([O-])[O-].O=[N+]([O-])[O-] [Compound 9, cis-[Pt(NH3)2(EtDiaz)2].2NO3]	73 ± 1 µM	–	103 ± 3 µM	90 ± 2 µM	nearly same as that of carboplatin	–
O=[N+]([O-])[O-].O=[N+]([O-])[O-].[NH3+][Pt-2]([NH3+])([S+]=C1NCCCCN1)[S+]=C1NCCCCN1 [Compound 10, cis-[Pt(NH3)2(Diap)2].2NO3]	52 µM	–	71 ± 1 µM	41 ± 1 µM	comparable to cisplatin	lower IC50 values
